Measurements reported in patent publication US11220503B2, “Phthalazine derivatives, preparation method, pharmaceutical composition and usage thereof” (Shanghai SIMR Biotech Co., Ltd., priority 2015, dated 2022).

Key:
[1] = target: T1, α5β3γ2 receptor (Homo sapiens, UniProt P18507+P31644); assay: Supplementary data for cell level screening: new electrophysiology method (I. Lecker et al); assay type: cell-based; conditions: for Inverse agonism efficacy(%): new method, CsCl intracellular solution, GABA 0.1˜0.3 CM, other procedures as previous method; for inverse agonism efficacy of the compound/α5IA inverse agonism efficacy: ratio to the α5IA reference run above in the table (r4 or r29)
T1 construct: expressed in transfected cells; host or cells: HEK-293 (stably transfected)
T1 sequence (P28472 26-473 isoform P28472-2 partner limits assumed, one chain of several): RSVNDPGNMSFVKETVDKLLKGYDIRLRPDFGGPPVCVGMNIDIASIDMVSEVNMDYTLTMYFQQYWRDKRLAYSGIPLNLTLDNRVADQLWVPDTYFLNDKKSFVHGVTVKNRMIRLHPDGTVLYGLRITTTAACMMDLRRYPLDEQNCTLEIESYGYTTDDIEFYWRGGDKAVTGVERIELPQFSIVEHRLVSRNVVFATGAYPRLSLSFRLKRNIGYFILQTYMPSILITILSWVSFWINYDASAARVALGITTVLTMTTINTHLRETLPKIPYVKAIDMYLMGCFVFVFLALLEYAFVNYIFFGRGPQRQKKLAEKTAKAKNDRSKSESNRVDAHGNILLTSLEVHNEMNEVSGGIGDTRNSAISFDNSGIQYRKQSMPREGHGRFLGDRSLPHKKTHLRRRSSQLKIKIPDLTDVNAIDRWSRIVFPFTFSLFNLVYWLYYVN
T1 sequence (P18507 40-475, one chain of several): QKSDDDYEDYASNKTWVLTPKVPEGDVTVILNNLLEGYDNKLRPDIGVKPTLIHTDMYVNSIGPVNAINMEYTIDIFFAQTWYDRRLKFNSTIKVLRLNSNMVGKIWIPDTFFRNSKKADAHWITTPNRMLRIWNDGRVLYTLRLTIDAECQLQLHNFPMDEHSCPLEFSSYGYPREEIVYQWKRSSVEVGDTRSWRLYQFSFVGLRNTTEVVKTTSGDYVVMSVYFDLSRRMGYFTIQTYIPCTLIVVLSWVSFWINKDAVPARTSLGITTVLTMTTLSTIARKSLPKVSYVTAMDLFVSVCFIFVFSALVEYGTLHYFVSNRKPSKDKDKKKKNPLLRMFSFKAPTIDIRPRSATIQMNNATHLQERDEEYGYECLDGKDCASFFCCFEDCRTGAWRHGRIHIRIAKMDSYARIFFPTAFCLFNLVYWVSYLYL
Experimental: The inventors used electrophysiological methods to assay the inverse agonist efficacy of the substance to be tested. The detailed procedures are as follows: (1) Different subunits of GABAA receptors were expressed in human embryonic kidney cells 293 (HEK293). The cells were cultured in a culture medium and used as a cell model for screening potential analgesics. The α, β and γ subunits are necessary to form complete functional GABAA receptors. In this example, the inventor has established the following cell model: (a) α5 subunit (protein sequence is GenBank accession number: NP_001158509), β3 subunit (protein sequence is GenBank accession number: NP_068712) and γ2 subunit (protein sequence is GenBank accession number: NP_944494) were expressed in HEK-293 cell lines at the same time, which formed the complete functional GABAA receptors. (2) Cells were stably transfected HEK-293 cells expressing α5β3γ2 receptor, which were labeled by green fluorescent protein (GFP). Cells were grown in 10 cm dishes. The cells were passaged after reaching 80-90% confluence. During passaging, the culture medium was removed and discarded, 3 mL DMEM medium (Gibco™) was added to the dishes, the dishes were shaken slightly, and DMEM was removed and discarded. 3 mL Trypsin (Trypsin-EDTA 0.05%, Gibco™) was added and cells were digested at 37° C. for 3 minutes. Then 3 mL complete growth medium (DMEM+10% horse serum (Gibco™)) was added and the cells at the bottom of the culture dishes were dispersed. The cell suspension were transferred to a 15 mL centrifugal tube (Corning®) and then centrifuged at 200 g for 3 minutes. The supernatant was discarded, 4 mL complete growth medium was added, and the cells were resuspended by gently blowing. The cell suspension was diluted by 1:5 or 1:10 for subculturing. The cell suspension was diluted by 1:12 for electrophysiology experiment, which are added to the 24 well plate (Corning®) which has a glass slide pre-treated with poly-D-lysine. The cells were adhered to the slide before the experiment was conducted. The cells were maintained in culture for no more than 24 hours before use. (3) Compound concentration: for screening, all compounds were diluted to a final concentration of 100 nM. […] The compounds were at the concentration of 1 nM, 10 nM, 50 nM, 100 nM and 1000 nM in dose-inverse agonism efficacy (%) experiment. The whole cell patch clamp technique was used in electrophysiology experiments. The extracellular solution (ECS) contained: 150 mM NaCl, 5 mM KCl, 2.5 mM CaCl2, 1 mM MgCl2, 10 mM HEPES and 10 mM glucose (pH 7.4); […], 5 mM EGTA, 10 mM HEPES ([…] water). The currents were recorded by an EPC-10 amplifier and the PatchMaster software (HEKA). Patch electrodes with a resistance of 5-6 MΩ were pulled from borosilicate glass (Sutter). The diluted compounds were perfused by OCTAFLOWII system. GFP positive and independently growing cells were selected for recording. During recording, the membrane voltage was clamped at −60 mV. During experiment, the cells were firstly perfused with ECS for 20 seconds. When the baseline reached to a stable state, cells were then perfused with GABA solution. Then the current induced by GABA can be detected. After about 20-40 seconds, the current was stable. ECS was switched to compounds solution and the effects of the compounds were detected. At last, the perfusion solution was switched to ECS. The experiment was finished when the post-baseline returned to the pre-baseline before compounds perfusion. Only the data whose pre-baseline and post-baseline are at almost the same level were used for analysis. […] Then, compounds were diluted at the desired concentration in GABA ECS. (4) Currents were analyzed with the PatchMaster (HEKA) software. The GABA currents before (Ipre) and after (Ipost) compounds perfusion were recorded respectively. The efficacies of compounds were calculated by the following equation: inverse agonism efficacy=(Ipost-Ipre)*100/Ipre. N indicates experiment numbers. […]

[2] = target: T1, α5β3γ2 receptor; assay: Cell level screening: whole cell patch clamp, inverse agonist efficacy; assay type: cell-based; conditions: for inhibition at 0.1 µM: HEK293, compound 100 nM, GABA 0.05-0.1 μM, HEK293 α5β3γ2, clamped at −60 mV, (Ipost-Ipre)*100/Ipre, read-out: inverse agonism efficacy(%); for inverse agonism efficacy of the compound/α5IA inverse agonism efficacy: ratio to α5IA, compound 100 nM
Experimental: The inventors used electrophysiological methods to assay the inverse agonist efficacy of the substance to be tested. The detailed procedures are as follows: (1) Different subunits of GABAA receptors were expressed in human embryonic kidney cells 293 (HEK293). The cells were cultured in a culture medium and used as a cell model for screening potential analgesics. The α, β and γ subunits are necessary to form complete functional GABAA receptors. In this example, the inventor has established the following cell model: (a) α5 subunit (protein sequence is GenBank accession number: NP_001158509), β3 subunit (protein sequence is GenBank accession number: NP_068712) and γ2 subunit (protein sequence is GenBank accession number: NP_944494) were expressed in HEK-293 cell lines at the same time, which formed the complete functional GABAA receptors. (2) Cells were stably transfected HEK-293 cells expressing α5β3γ2 receptor, which were labeled by green fluorescent protein (GFP). Cells were grown in 10 cm dishes. The cells were passaged after reaching 80-90% confluence. During passaging, the culture medium was removed and discarded, 3 mL DMEM medium (Gibco™) was added to the dishes, the dishes were shaken slightly, and DMEM was removed and discarded. 3 mL Trypsin (Trypsin-EDTA 0.05%, Gibco™) was added and cells were digested at 37° C. for 3 minutes. Then 3 mL complete growth medium (DMEM+10% horse serum (Gibco™)) was added and the cells at the bottom of the culture dishes were dispersed. The cell suspension were transferred to a 15 mL centrifugal tube (Corning®) and then centrifuged at 200 g for 3 minutes. The supernatant was discarded, 4 mL complete growth medium was added, and the cells were resuspended by gently blowing. The cell suspension was diluted by 1:5 or 1:10 for subculturing. The cell suspension was diluted by 1:12 for electrophysiology experiment, which are added to the 24 well plate (Corning®) which has a glass slide pre-treated with poly-D-lysine. The cells were adhered to the slide before the experiment was conducted. The cells were maintained in culture for no more than 24 hours before use. (3) Compound concentration: for screening, all compounds were diluted to a final concentration of 100 nM. GABA was diluted at the concentration of 0.05-0.1 μM. The compounds were at the concentration of 1 nM, 10 nM, 50 nM, 100 nM and 1000 nM in dose-inverse agonism efficacy (%) experiment. The whole cell patch clamp technique was used in electrophysiology experiments. The extracellular solution (ECS) contained: 150 mM NaCl, 5 mM KCl, 2.5 mM CaCl2, 1 mM MgCl2, 10 mM HEPES and 10 mM glucose (pH 7.4); Patch electrodes were filled with an intracellular solution containing: 140 mM KCl, 5 mM EGTA, 10 mM HEPES (adjusted to pH 7.4 with KOH and to 320-330 mOsm with water). The currents were recorded by an EPC-10 amplifier and the PatchMaster software (HEKA). Patch electrodes with a resistance of 5-6 MΩ were pulled from borosilicate glass (Sutter). The diluted compounds were perfused by OCTAFLOWII system. GFP positive and independently growing cells were selected for recording. During recording, the membrane voltage was clamped at −60 mV. During experiment, the cells were firstly perfused with ECS for 20 seconds. When the baseline reached to a stable state, cells were then perfused with GABA solution. Then the current induced by GABA can be detected. After about 20-40 seconds, the current was stable. ECS was switched to compounds solution and the effects of the compounds were detected. At last, the perfusion solution was switched to ECS. The experiment was finished when the post-baseline returned to the pre-baseline before compounds perfusion. Only the data whose pre-baseline and post-baseline are at almost the same level were used for analysis. GABA was diluted at the concentration of 0.05-0.1 μM in ECS. Then, compounds were diluted at the desired concentration in GABA ECS. (4) Currents were analyzed with the PatchMaster (HEKA) software. […]

[3] = target: T2, α5-GABAA (Homo sapiens, UniProt P31644); conditions: cited from earlier work
T2 sequence (P31644 32-462): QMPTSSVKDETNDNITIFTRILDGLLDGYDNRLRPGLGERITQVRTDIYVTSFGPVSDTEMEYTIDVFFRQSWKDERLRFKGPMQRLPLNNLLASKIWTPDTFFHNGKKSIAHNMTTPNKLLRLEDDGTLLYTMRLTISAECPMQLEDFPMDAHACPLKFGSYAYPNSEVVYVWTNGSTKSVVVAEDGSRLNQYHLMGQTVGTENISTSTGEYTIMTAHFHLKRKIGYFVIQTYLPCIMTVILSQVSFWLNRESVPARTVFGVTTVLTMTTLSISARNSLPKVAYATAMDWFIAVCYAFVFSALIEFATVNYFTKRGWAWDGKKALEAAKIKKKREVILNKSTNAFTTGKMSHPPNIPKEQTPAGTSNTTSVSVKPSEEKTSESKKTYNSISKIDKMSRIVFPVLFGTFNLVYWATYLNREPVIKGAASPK

Compound | Inverse agonism efficacy(%) [1] [%] | inverse agonism efficacy of the compound/α5IA inverse agonism efficacy [1] | inhibition at 0.1 µM [2] [%] | inverse agonism efficacy of the compound/α5IA inverse agonism efficacy [2] | inhibition efficacy ([3]; GABA 1 μM, highest dose of L-655,708) [%] | inhibition of the current induced by low level GABA ([3]; GABA 5, 50 and 500 nM) | inhibition on the current induced by GABA ([3]; GABA concentration higher than 1 μM)
COCCNC(=O)c1ccc(COc2nn3c(-c4cc(CO)on4)nnc3c3ccccc23)nc1 [Compound 43, 6-(((3-(5-(hydroxymethyl)isoxazol-3-yl)-[1,2,4]triazolo[3,4-a]phthalazin-6-yl)oxy)methyl)-N-(2-methoxyethyl)nicotinamide] | −35 | 2.015 | 27.9 | 1.239 | – | – | –
O=C(NC1CCOC1)c1ccc(COc2nn3c(-c4cc(CO)on4)nnc3c3ccccc23)nc1 (stereo not drawn) [Compound 47, 6-(((3-(5-(hydroxymethyl)isoxazol-3-yl)-[1,2,4]triazol[3,4-a]phthalazin-6-yl)oxy)methyl)-N-(tetrahydrofuran-3-yl)nicotinamide] | −26.875 | 1.547 | 51.5 | 2.284 | – | – | –
O=C(NC1CCC1)c1ccc(COc2nn3c(-c4cc(CO)on4)nnc3c3ccccc23)nc1 [Compound 48, N-cyclobutyl-6-(((3-(5-(hydroxymethyl)isoxazol-3-yl)-[1,2,4]triazolo[3,4-a]phthalazin-6-yl)oxy)methyl)nicotinamide] | −20 | 1.151 | 43.2 | 1.915 | – | – | –
C[C@H](CO)NC(=O)c1ccc(COc2nn3c(-c4cc(CO)on4)nnc3c3ccccc23)c(C#N)c1 [Compound 55, (R)-3-cyano-4-(((3-(5-(hydroxymethyl)isoxazol-3-yl)-[1,2,4]triazolo[3,4-a]phthalazin-6-yl)oxy)methyl)-N-(1-hydroxypropan-2-yl)benzamide] | −31.6 | 1.819 | 33.3 | 1.4765 | – | – | –
Cc1nc(-c2nnc3c4ccccc4c(OCc4ccc(C(=O)N[C@H](C)CO)cn4)nn23)no1 [Compound 57, (R)—N-(1-hydroxypropan-2-yl)-6-(((3-(5-methyl-1,2,4-oxadiazol-3-yl)-[1,2,4]triazolo[3,4-a]phthalazin-6-yl)oxy)methyl)nicotinamide] | −25 | 1.439 | 38.3 | 1.6973 | – | – | –
Cc1cc(-c2nnc3c4ccccc4c(OCc4cc(C(=O)N[C@H](C)CO)on4)nn23)no1 [Compound 58, (R)—N-(1-hydroxypropan-2-yl)-3-(((3-(5-methylisoxazol-3-yl)-[1,2,4]triazolo[3,4-a]phthalazin-6-yl)oxy)methyl)isoxazole-5-carboxamide] | −27 | 1.554 | 30 | 1.33 | – | – | –
CCOC(=O)c1ncn2c1[C@@H]1CCCN1C(=O)c1cc(OC)ccc1-2 [L-655,708] | – | – | – | – | ~15 | in the concentration dependent manner | no inhibition
